Experiments:
[1] = target: T1, cyclooxygenase-1 (U-937 microsomes) (Homo sapiens, UniProt P23219); test: Microsomal cyclooxygenase assay, U-937 microsomes; assay type: biochemical; settings: 20 μM arachidonic acid
T1 construct: host or cells: microsomal fraction of U-937 cells
Experimental: COX-1 cells are grown and maintained in culture as described above, washed in a suitable buffer, such as PBS, and cell pellets or concentrates stored, preferably at −80° C. […] The cell homogenate is then concentrated and resuspended. In our preferred procedure the cell homogenate is centrifuged at 10,000× g for 10 minutes at 4° C. The supernatant fraction is then recentrifuged at 100,000× g for 2 hours at 4° C., and the resulting microsomal pellet resuspended in a suitable buffer, such as 0.1 M Tris-HCl, 1 mM EDTA, pH 7.4 to a protein concentration of approximately 1 to 10 mg/ml. Aliquots of osteosarcoma microsomal preparations may be stored at reduced temperature and thawed prior to use.
(§1) Microsomal preparations from Human osteosarcoma and U937 cells are diluted in buffer, such as 0.1 M Tris-HCl, 10 mM EDTA, pH 7.4, (Buffer A) to a protein concentration of 50 to 500 µg/ml. […] Typically, assays are performed in either duplicate or triplicate. Peroxide-free arachidonic acid (CAYMAN) in Buffer A is then added to a final concentration of 20 μM arachidonic acid, followed by incubation, preferably at room temperature for 10 to 60 minutes. Control samples contained ethanol or other vehicle instead of arachidonic acid. Following incubation, the reaction was terminated by addition of HCl or other mineral acid. Prior to analysis of PGE2 levels, samples were neutralized. Levels of PGE2 in samples may be quantitated as described for the whole cell cyclooxygenase assay.
U-937 cells were grown and maintained in culture as described above, washed in PBS, and cell pellets frozen at −80° C. […] The cell homogenate was then centrifuged at 10,000× g for 10 minutes at 4° C. The supernatant fraction was then recentrifuged at 100,000× g for 2 hours at 4° C., and the resulting microsomal pellet resuspended in 0.1 M Tris-HCl, 1 mM EDTA, pH 7.4 to a protein concentration of approximately 4 mg/ml. 500 μl aliquots of osteosarcoma microsomal preparations were stored at −80° C. and thawed on ice immediately prior to use.
All subsequent assay steps, including the dilution of stock solutions of test compounds, were automated using the BIOMEK 100 (BIORAD). 5 μl of test compound or DMSO vehicle was added, with mixing, to 20 μl of buffer A in a 96-well minitube plate (BECKMAN). 200 μl of microsome suspension was then added, followed by mixing and incubation for 5 minutes at room temperature. Assays were performed in either duplicate or triplicate. […] of peroxide-free arachidonic acid (CAYMAN) in buffer A is then added to a final concentration of 20 μM aracidonic acid, with mixing, followed by incubation at room temperature for 40 minutes. Control samples contained ethanol vehicle instead of arachidonic acid. Following the incubation period, the reaction was terminated by the addition of 25 μl of 1N HCl, with mixing. Prior to analysis of PGE2 levels, samples were neutralized by the addition of 25 μl of 1 N NaOH. Levels of PGE2 in samples were quantitated by enzyme immunoassay (CAYMAN) as described for the whole cell cyclooxygenase assay.

[2] = target: T2, cyclooxygenase-2 (osteosarcoma 143.98.2 microsomes) (Homo sapiens, UniProt P35354); test: Microsomal cyclooxygenase assay, osteosarcoma 143.98.2 microsomes; assay type: biochemical; settings: 20 μM arachidonic acid
T2 construct: The cell homogenates were then subjected to a differential centrifugation protocol to yield an enriched microsomal preparation; endogenous in cells; host or cells: microsomal fraction of human osteosarcoma 143.98.2 cells
T2 sequence (P35354 18-604): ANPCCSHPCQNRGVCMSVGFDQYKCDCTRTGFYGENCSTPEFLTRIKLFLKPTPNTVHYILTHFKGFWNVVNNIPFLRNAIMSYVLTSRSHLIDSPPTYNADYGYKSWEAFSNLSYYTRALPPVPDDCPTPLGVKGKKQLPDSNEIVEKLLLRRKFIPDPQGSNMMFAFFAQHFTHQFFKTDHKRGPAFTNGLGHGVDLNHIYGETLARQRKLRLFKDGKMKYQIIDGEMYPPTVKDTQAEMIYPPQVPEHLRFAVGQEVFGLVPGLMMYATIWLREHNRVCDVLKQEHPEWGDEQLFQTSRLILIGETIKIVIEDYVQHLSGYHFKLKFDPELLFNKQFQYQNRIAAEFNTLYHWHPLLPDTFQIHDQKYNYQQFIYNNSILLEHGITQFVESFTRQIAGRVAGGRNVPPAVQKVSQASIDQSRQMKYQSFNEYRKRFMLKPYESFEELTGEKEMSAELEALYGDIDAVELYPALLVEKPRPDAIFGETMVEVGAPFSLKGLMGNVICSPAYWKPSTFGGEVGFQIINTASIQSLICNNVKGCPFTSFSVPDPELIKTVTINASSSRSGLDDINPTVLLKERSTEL
Experimental: Human osteosarcoma cells may be grown and maintained in culture as described above. Approximately 10^5 to 10^7 cells are plated in tissue culture plates such as available from NUNCLON and maintained in culture for 2 to 7 days. Cells may be washed with a suitable buffer such phosphate buffered saline, (PBS), pH 7.2. Cells are then removed from the plate, preferably by scraping into PBS. Samples may then be concentrated, such as by centrifuging at 400× g for 10 minutes at 4° C. Cell pellets or other concentrates are either stored at a suitable reduced temperature such as −80° C., or processed immediately. All further manipulations of the cells are preferably performed at 0-4° C. […] Enriched microsomal preparations are then prepared, such as by differential centrifugation to yield an enriched microsomal preparation. In our preferred procedure, the first step consists of four sequential centrifugations of the cell homogenate at 10,000× g for 10 min at 4° C. After each centrifugation at 10,000×.g, the supernatant is retained and recentrifuged. Following the fourth centrifugation, the supernatant is centrifuged at 100,000× g for 60-90 min at 4° C. to pellet the microsomal fraction. […] The resulting microsomal suspension is recentrifuged such as at 100,000× g for 90 min at 4° C. to recover the microsomes. Following this centrifugation the microsomal pellet is resuspended in a stabilizing buffer, such as 0.1 M Tris-Cl, pH 7.4, containing 10 mM EDTA at a protein concentration of approximately 2-5 mg/ml. Aliquots of osteosarcoma microsomal preparations may be stored at low temperature, such as at −80° C. and thawed prior to use.
as §1
Cells were washed twice with 100 ml of phosphate buffered saline, pH 7.2, (PBS) and then scraped from the plate with a sterile rubber scraper into PBS. Samples were then centrifuged at 400× g for 10 minutes at 4° C. Cell pellets were either stored at −80° C. until use or processed immediately. All further manipulations of the cells were performed at 0-4° C. […] The cell homogenates were then subjected to a differential centrifugation protocol to yield an enriched microsomal preparation. The first step consisted of four sequential centrifugations of the cell homogenate at 10,000× g for 10 min at 4° C. After each centrifugation at 10,000× g the supernatant was retained and recentrifuged. Following the fourth centrifugation, the supernatant was centrifuged at 100,000× g for 60-90 min at 4° C. to pellet the microsomal fraction. […] The resulting microsomal suspension was recentrifuged at 100,000× g for 90 min at 4° C. to recover the microsomes. […] 500 μl aliquots of osteosarcoma microsomal preparations were stored at −80° C. and thawed on ice immediately prior to use.
All subsequent assay steps, including the dilution of stock solutions of test compounds, were automated using the BIOMEK 100 (BIORAD). 5 μl of test compound or DMSO vehicle was added, with mixing, to 20 μl of buffer A in a 96-well minitube plate (BECKMAN).

[3] = system: osteosarcoma 143 cells; test: PGE2 synthesis by osteosarcoma 143 cells in response to arachidonic acid after treatment with growth factors/cytokines; assay type: cell-based, human; settings: 10 pg/ml; within a 3-hour period, 1% serum; relative to cells grown in the absence of these factors
[4] = target: T3, cyclooxygenase-1 (U-937 cells) (Homo sapiens, UniProt P23219); test: Whole cell cyclooxygenase assay, PGE2 synthesis by U-937 cells in response to exogenous arachidonic acid; assay type: cell-based
T3 construct: the appropriate number of U-937 cells were removed from spinner cultures and centrifuged; host or cells: U-937 human histiocytic lymphoma cells (intact)
T3 sequence (P23219 24-599): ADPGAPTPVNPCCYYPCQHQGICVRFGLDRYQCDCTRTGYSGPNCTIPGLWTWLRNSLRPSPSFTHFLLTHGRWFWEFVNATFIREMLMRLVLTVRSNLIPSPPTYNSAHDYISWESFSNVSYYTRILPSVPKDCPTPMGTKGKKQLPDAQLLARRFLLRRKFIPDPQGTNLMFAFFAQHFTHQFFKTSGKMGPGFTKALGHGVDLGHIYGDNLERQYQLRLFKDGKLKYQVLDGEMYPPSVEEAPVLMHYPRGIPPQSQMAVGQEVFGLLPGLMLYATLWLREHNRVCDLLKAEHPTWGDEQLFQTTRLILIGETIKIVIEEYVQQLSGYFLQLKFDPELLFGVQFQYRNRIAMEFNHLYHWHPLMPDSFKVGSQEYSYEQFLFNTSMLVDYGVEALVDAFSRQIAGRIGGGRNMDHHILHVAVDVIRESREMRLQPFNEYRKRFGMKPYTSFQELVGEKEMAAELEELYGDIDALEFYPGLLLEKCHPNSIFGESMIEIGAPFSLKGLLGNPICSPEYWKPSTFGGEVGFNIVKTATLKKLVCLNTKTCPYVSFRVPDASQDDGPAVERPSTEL
Experimental: Such cells are hereinafter described as COX-1 cells. Prior to assay, the appropriate number of COX-1 cells (10^5 to 10^7 cells/ml) are removed from cultures and concentrated using a technique such as by centrifugation at 300× g for 10 minutes. The supernatant is decanted and cells are washed in a suitable buffer. […] Following incubation of human osteosarcoma cells or COX-1 cells in a suitable buffer, a test compound and/or vehicle samples (such as DMSO) is added, and the resulting composition gently mixed. Preferably the assay is performed in triplicate. Arachidonic acid is then added in proportions as described above. […] Control samples should contain ethanol or other vehicle instead of arachidonic acid. […] For osteosarcoma cells, reactions may be stopped by the addition HCl or other acid, preferably combined with mixing, or by the rapid removal of media directly from cell monolayers. For U-937 cells, reactions may be advantageously be performed in multiwell dishes or microcentrifuge tubes and stopped by the addition of HCl or another mineral acid. Typically, samples assayed in 24-multidishes are then transferred to microcentrifuge tubes, and all samples frozen on dry ice. Similarly, samples are typically stored at -20° C. or below prior to analysis of PGE2 levels. […] Samples are then preferably mixed, such as by vortexing, and PGE2 levels measured using a PGE2 enzyme immunoassay, such as is commercially available from CAYMAN. We have advantageously conducted the plating, washing and color development steps as an automated sequence using a BIOMEK 1000 (BECKMAN). […] Levels of PGE2 are calculated from the standard curve, and may optionally determined using BECKMAN IMMUNOFIT EIA/RIA analysis software. […] Inhibition of PGE2 synthesis by test compounds is calculated between PGE2 levels in samples incubated in the absence or presence of […]. […] For routine subculturing, cells were diluted in fresh medium and transferred to fresh flasks. […] The supernatant was decanted and cells washed in 50 ml of HBSS prewarmed to 37° C. Cells were again pelleted at 300× g for 10 minutes and resuspended in prewarmed HBSS to a final cell density of approximately 1.5×10^6 cells/ml. 1 ml aliquots of cell suspension were transferred to 1.5 ml microcentrifuge tubes or 24-well multidishes (Nunclon). […] All assays were performed in triplicate. […] Control samples contained ethanol vehicle instead of arachidonic acid. Samples were again gently mixed and incubated for a further 10 minutes at 37° C. […] For U-937 cells, reactions in multiwell dishes or microcentrifuge tubes were stopped by the addition of 100 μl of 1N HCl, with mixing. Samples assayed in 24-multidishes were then transferred to microcentrifuge tubes, and all samples were frozen on dry ice. Samples were stored at -20° C. prior to analysis of PGE2 levels. […] Samples were then mixed by vortexing, and PGE2 levels measured using a PGE2 enzyme immunoassay (CAYMAN) according to the manufacturers instructions. The plating, washing and colour development steps of this procedure were automated using a BIOMEK 1000 (BECKMAN). […] Levels of PGE2 were calculated from the standard curve determined using BECKMAN IMMUNOFIT EIA/RIA analysis software.

T1 sequence (P23219 24-599): as above

Compound: Cc1cc(CC(=O)O)n(C)c1C(=O)c1ccc(Cl)cc1 [Zomipirac]
- U-937 % Inhibition ([1]; drug 100 nM): 30%
- U-937 % Inhibition ([1]; drug 3 uM): 67%
- 143.98.2 % Inhibition ([2]; drug 100 nM): 45%
- 143.98.2 % Inhibition ([2]; drug 3 uM): 66%

Compound: IL1-β: human recombinant IL1-β (R and D systems Inc.)
- levels of PGE2 synthesis by osteosarcoma 143 cells in response to arachidonic acid [3]: increased

Compound: CSc1ccc(/C=C2/C(C)=C(CC(=O)O)c3cc(F)ccc32)cc1 [Sulindac sulfide]
- inhibition at 0.1 µM ([1]; drug 100 nM): 0%
- inhibition at 3 µM ([1]; drug 3 uM): 4%

Compound: CS(=O)(=O)Nc1cc2c(cc1Oc1ccc(F)cc1F)C(=O)CC2 [Flosulide]
- inhibition at 0.1 µM ([1]; drug 100 nM): 0%
- inhibition at 3 µM ([1]; drug 3 uM): 0%

Compound: O=C(O)c1ccccc1Nc1cccc(C(F)(F)F)c1 [Flufenamic]
- U-937 % Inhibition ([1]; drug 100 nM): 5%
- U-937 % Inhibition ([1]; drug 3 uM): 0%
- 143.98.2 % Inhibition ([2]; drug 100 nM): 16%
- 143.98.2 % Inhibition ([2]; drug 3 uM): 36%

Compound: CS(=O)(=O)Nc1ccc([N+](=O)[O-])cc1OC1CCCCC1 [NS-398]
- inhibition at 0.1 µM ([1]; drug 100 nM): 0%
- inhibition at 3 µM ([1]; drug 3 uM): 0%
- U-937 PGE2 ([4]; sample 0.3 nM): 18.3 ng/10^6 cells
- U-937 PGE2 ([4]; sample 1.0 nM): 17.7 ng/10^6 cells
- U-937 PGE2 ([4]; sample 3.0 nM): 18.3 ng/10^6 cells
- U-937 PGE2 ([4]; sample 10 nM): 20.4 ng/10^6 cells
- U-937 PGE2 ([4]; sample 30.0 nM): 17.7 ng/10^6 cells
- U-937 PGE2 ([4]; sample 100 nM): 18.9 ng/10^6 cells

Compound: CS(=O)(=O)c1ccc(-c2cc(Br)sc2-c2ccc(F)cc2)cc1 [DuP-697]
- inhibition at 0.1 µM ([1]; drug 100 nM): 6%
- inhibition at 3 µM ([1]; drug 3 uM): 48%

Compound: CC(=O)c1ccc(NS(C)(=O)=O)c(Oc2ccc(F)cc2F)c1 [FK-3311]
- U-937 % Inhibition ([1]; drug 100 nM): 0%
- U-937 % Inhibition ([1]; drug 3 uM): 0%
- 143.98.2 % Inhibition ([2]; drug 100 nM): 20%
- 143.98.2 % Inhibition ([2]; drug 3 uM): 26%

Compound: CC(C(=O)O)c1ccc(-c2ccccc2)c(F)c1 (centres unmarked) [Fluribprofen]
- U-937 % Inhibition ([1]; drug 100 nM): 57%
- U-937 % Inhibition ([1]; drug 3 uM): 89%
